Data as given in patent US11548878B2, “Emopamil binding protein binding agent and use thereof” (FUJIFILM Toyama Chemical Co., Ltd., priority 2017, dated 2023).

Target: T1, EBP (Homo sapiens, UniProt Q15125)
T1 construct: A membrane fraction was collected from sigma-1 receptor-deficient human neuroblastoma (SH-SY5Y) cells; endogenous in cells; host or cells: sigma-1 receptor-deficient SH-SY5Y human neuroblastoma cells (membrane fraction)
Test: EBP Binding Test (Test Example 1): tritium-labeled Compound A binding to membrane fractions of sigma-1 receptor-deficient SH-SY5Y cells with EBP deleted or overexpressed
Experimental: The binding ability of Compound A to EBP was examined. The test was carried out in accordance with Receptor Signal Transduction Protocols, pp. 135-164 (ISBN 978-1-61779-125-3).
A membrane fraction was collected from sigma-1 receptor-deficient human neuroblastoma (SH-SY5Y) cells, in which EBP was deleted or was overexpressed. Inactivated fetal bovine serum was added to a liquid medium DMEM (Dulbecco's Modified Eagle's Medium) to a final concentration of 10%, and then, a Penicillin-Streptomycin solution (10000 U/mL Penicillin-10000 μg/mL Streptmycin) was added to the medium to a final concentration of 100 U/mL Penicillin-100 μg/mL Streptmycin. The SH-SY5Y cells were cultured in the thus prepared medium.
The method of preparing a membrane fraction is as follows. The cells cultured to a subconfluent state were recovered using a cell scraper, and were then suspended in a 50 mM Tris-HCl (pH=7.4) buffer, followed by disintegrating the cells with an ultrasonic disintegrator. The disintegrated solution was centrifuged (1000 g, 10 minutes), and the supernatant was then ultracentrifuged (28000 rpm, 30 minutes). Thereafter, the obtained precipitate was re-suspended in a 50 mM Tris-HCl (pH=7.4) buffer to obtain a membrane fraction. Regarding the thus prepared membrane fraction, the protein concentration was measured according to a BCA method, and the membrane fraction was then adjusted to a concentration of approximately 1 mg/mL. […]
The receptor binding test method is as follows. […] Thereafter, a liquid scintillation cocktail was added thereto, and the radiation dose (CPM) in each well was then measured using a scintillation counter.
The specific binding ability of Compound A to EBP was determined by subtracting the radiation dose of the control (Non-specific binding) from the radiation dose derived from the tritium-labeled Compound A at each concentration (Total binding). Since the amount of the protein used was different depending on the cell membrane, CPM per μg of the membrane fraction protein used in the reaction was calculated (CPM/protein amount).

T1 sequence (Q15125 2-230 limits assumed): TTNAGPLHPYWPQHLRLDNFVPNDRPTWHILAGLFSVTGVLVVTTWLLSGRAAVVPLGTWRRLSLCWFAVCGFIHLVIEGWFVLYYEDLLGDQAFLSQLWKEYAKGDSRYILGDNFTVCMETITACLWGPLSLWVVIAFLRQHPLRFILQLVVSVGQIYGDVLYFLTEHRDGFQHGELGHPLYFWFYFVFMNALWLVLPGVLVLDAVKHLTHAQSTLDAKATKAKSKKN

## OC1CN(CCCOCCc2ccc3sccc3c2)C1 [Compound A]
Conclusion from FIG. 1 and FIG. 2
  affinity for EBP: high affinity
Membrane fraction of SH-SY5Y cells, tritium-labeled Compound A 0.05-100.0 nM, 37° C. for 2 hours, FIG. 1
  radiation dose (specific binding, CPM/protein amount) in sigma-1 receptor-deficient and EBP-deficient cells compared with sigma-1 receptor-deficient cells: lower
Membrane fraction of SH-SY5Y cells, tritium-labeled Compound A 0.05-100.0 nM, 37° C. for 2 hours, FIG. 2
  radiation dose (specific binding, CPM/protein amount) in sigma-1 receptor-deficient and EBP-overexpressing cells compared with sigma-1 receptor-deficient cells: higher
